Measurements: the NIST ThermoML archive (doi:10.1021/je034224j)

Assay: xn = mol fraction of the nth substance listed

CCOC(=O)CC [ethyl propanoate] + O=C=O
Liquid
Conditions | mass density [kg/m3]
313 K, 2960 kPa, x2 = 0.5818 | 971
313 K, 3960 kPa, x2 = 0.6881 | 973.6
313 K, 4460 kPa, x2 = 0.7509 | 965.9
313 K, 4960 kPa, x2 = 0.799 | 960.9
313 K, 5460 kPa, x2 = 0.8301 | 950.9
313 K, 5970 kPa, x2 = 0.8675 | 923.3
313 K, 6270 kPa, x2 = 0.8871 | 902.4
333 K, 2960 kPa, x2 = 0.4093 | 900.2
333 K, 3460 kPa, x2 = 0.4733 | 905.3
333 K, 4460 kPa, x2 = 0.5479 | 902.9
333 K, 5460 kPa, x2 = 0.6214 | 895.5
333 K, 5960 kPa, x2 = 0.6608 | 886.6
333 K, 6660 kPa, x2 = 0.7224 | 868.7
333 K, 7260 kPa, x2 = 0.7819 | 842.2
353 K, 2960 kPa, x2 = 0.3557 | 864.4
353 K, 3860 kPa, x2 = 0.4093 | 864.9
353 K, 4960 kPa, x2 = 0.4746 | 869.1
353 K, 5960 kPa, x2 = 0.5459 | 855.1
353 K, 6960 kPa, x2 = 0.6173 | 854
353 K, 7970 kPa, x2 = 0.6847 | 850.5
353 K, 8870 kPa, x2 = 0.7529 | 824.3
373 K, 2960 kPa, x2 = 0.3282 | 817
373 K, 4460 kPa, x2 = 0.3961 | 812.4
373 K, 5960 kPa, x2 = 0.4965 | 802.1
373 K, 7470 kPa, x2 = 0.5422 | 788.2
373 K, 8970 kPa, x2 = 0.6332 | 766.7
373 K, 10570 kPa, x2 = 0.7127 | 735.7
373 K, 10970 kPa, x2 = 0.7391 | 720.9

CCOC(C)=O [ethyl acetate] + O=C=O
Conditions | mass density [kg/m3]
333 K, 5360 kPa, Gas, x2 = 0.1231 | 987.7
333 K, 5360 kPa, Liquid, x2 = 0.5727 | 865.7
333 K, 5960 kPa, Gas, x2 = 0.1544 | 986
333 K, 5960 kPa, Liquid, x2 = 0.6283 | 836.3
333 K, 6470 kPa, Gas, x2 = 0.1698 | 986.1
333 K, 6470 kPa, Liquid, x2 = 0.6584 | 814.8
333 K, 7570 kPa, Gas, x2 = 0.2068 | 978.7
333 K, 7570 kPa, Liquid, x2 = 0.7586 | 785.3
333 K, 8460 kPa, Gas, x2 = 0.2731 | 973.6
333 K, 8460 kPa, Liquid, x2 = 0.8057 | 746.7
333 K, 8970 kPa, Gas, x2 = 0.3708 | 969.6
333 K, 8970 kPa, Liquid, x2 = 0.8421 | 720.4
353 K, 3960 kPa, Gas, x2 = 0.0666 | 980.2
353 K, 3960 kPa, Liquid, x2 = 0.5532 | 923.2
353 K, 5060 kPa, Gas, x2 = 0.0935 | 978.3
353 K, 5060 kPa, Liquid, x2 = 0.5767 | 920.9
353 K, 6270 kPa, Gas, x2 = 0.127 | 973.9
353 K, 6270 kPa, Liquid, x2 = 0.6075 | 919.6
353 K, 7470 kPa, Gas, x2 = 0.1822 | 967.8
353 K, 7470 kPa, Liquid, x2 = 0.627 | 901.7
353 K, 8470 kPa, Gas, x2 = 0.22 | 966.1
353 K, 8470 kPa, Liquid, x2 = 0.6668 | 854
353 K, 9470 kPa, Gas, x2 = 0.2634 | 956
353 K, 9470 kPa, Liquid, x2 = 0.7587 | 746.5
373 K, 5690 kPa, Gas, x2 = 0.0819 | 964.1
373 K, 5690 kPa, Liquid, x2 = 0.4697 | 758.8
373 K, 6460 kPa, Gas, x2 = 0.1202 | 961.2
373 K, 6460 kPa, Liquid, x2 = 0.5001 | 784.3
373 K, 7960 kPa, Gas, x2 = 0.1682 | 955.5
373 K, 7960 kPa, Liquid, x2 = 0.5505 | 790.5
373 K, 9470 kPa, Gas, x2 = 0.2401 | 944
373 K, 9470 kPa, Liquid, x2 = 0.6046 | 781.7
373 K, 10570 kPa, Gas, x2 = 0.352 | 923.9
373 K, 10570 kPa, Liquid, x2 = 0.6715 | 788.4
373 K, 11370 kPa, Gas, x2 = 0.4692 | 913.5
373 K, 11370 kPa, Liquid, x2 = 0.7259 | 780.3
393 K, 5060 kPa, Gas, x2 = 0.055 | 951.6
393 K, 5060 kPa, Liquid, x2 = 0.455 | 713.7
393 K, 5460 kPa, Gas, x2 = 0.0849 | 941.9
393 K, 5460 kPa, Liquid, x2 = 0.4831 | 744.8
393 K, 6970 kPa, Gas, x2 = 0.1218 | 932.1
393 K, 6970 kPa, Liquid, x2 = 0.5129 | 771.1
393 K, 8480 kPa, Gas, x2 = 0.1766 | 917.3
393 K, 8480 kPa, Liquid, x2 = 0.545 | 804.3
393 K, 9970 kPa, Gas, x2 = 0.255 | 895.6
393 K, 9970 kPa, Liquid, x2 = 0.5744 | 791.8
393 K, 11470 kPa, Gas, x2 = 0.4 | 856.8
393 K, 11470 kPa, Liquid, x2 = 0.6237 | 755.8
393 K, 11970 kPa, Gas, x2 = 0.6025 | 846.6
393 K, 11970 kPa, Liquid, x2 = 0.6629 | 719.7
